Data as given in paper PMC8125234, “Cardiolipin Stabilizes and Increases Catalytic Efficiency of Carnitine Palmitoyltransferase II and Its Variants S113L, P50H, and Y479F” (International Journal of Molecular Sciences, 2021).
Substitutions are numbered along the chain they refer to.

What was measured:
[1] = target: T1, CPT II WT (Homo sapiens, UniProt P23786); test: Influence of CL on the enzyme activity; assay type: biochemical; conditions: for Maximal Enzymatic Activity: w/o CL = 100
T1 construct: made in house; host or cells: Escherichia coli BL21Gold DE
T1 sequence (P23786 26-658): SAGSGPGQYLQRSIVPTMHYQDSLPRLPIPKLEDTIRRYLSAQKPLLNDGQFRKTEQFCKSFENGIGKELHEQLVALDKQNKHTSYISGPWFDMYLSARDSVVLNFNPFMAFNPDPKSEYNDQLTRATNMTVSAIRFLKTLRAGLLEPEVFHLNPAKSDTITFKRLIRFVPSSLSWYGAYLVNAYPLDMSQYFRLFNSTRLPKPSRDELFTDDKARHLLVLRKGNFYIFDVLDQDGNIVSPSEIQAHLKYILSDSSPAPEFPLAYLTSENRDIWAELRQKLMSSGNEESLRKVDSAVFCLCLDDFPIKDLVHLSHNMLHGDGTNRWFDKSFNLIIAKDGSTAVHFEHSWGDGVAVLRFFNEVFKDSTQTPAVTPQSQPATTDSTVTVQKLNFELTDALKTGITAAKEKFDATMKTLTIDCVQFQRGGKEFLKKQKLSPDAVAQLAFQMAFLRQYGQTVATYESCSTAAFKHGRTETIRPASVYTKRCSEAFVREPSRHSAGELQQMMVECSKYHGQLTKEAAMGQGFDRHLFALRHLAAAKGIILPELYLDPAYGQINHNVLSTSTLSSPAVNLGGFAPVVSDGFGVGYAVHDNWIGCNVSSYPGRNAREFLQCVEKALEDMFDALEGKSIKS
Protocol: Then, the effect of CL, as a potential stabilizing agent, was investigated in the activity assay. Therefore, 0.1 mg/mL recombinant enzyme was incubated with various concentrations of CL (0.125, 0.25 or 0.5 mM) or buffer at 30 and 42 °C, respectively.
Before activity measurements, the storage buffer of the enzymes was replaced with assay buffer (50 mM KH2PO4, 120 mM KCl, 1 mM EDTA-Na4) using vivaspin turbo 4 tubes (Satorius Stedim biotech GmbH, Göttingen, Germany) at 4 °C. The pH of assay buffer was adjusted with KOH to 7.4. The storage buffer was diluted at least 1:500 in assay buffer. In addition, before each experimental set up, the protein samples were centrifuged at 16,000× g for 5 min at 4 °C to remove any micro-aggregates. After that, the protein concentration was determined using bicinchoninic acid (BCA) protein assay kit (Thermo Fisher Scientific GmbH, Berlin, Germany). The enzyme activity of recombinant CPT II was performed following Rufer et al. with modifications described elsewhere. […] After pre-conditioning the mixture to 25 °C for 2 min, the reaction was started by adding 15 nM of recombinant enzyme. The reverse reaction of CPT II was detected with the enzyme activity assay. CPT II catalyzed the transfer of fatty acid residue from Pal-CoA to L-carnitine with release of CoA and Pal-carnitine. The released CoA was then detected by the reaction of the free thiol group with DTNB, forming 5-mercapto-(2-nitrobenzoic acid). This compound has a molar extinction coefficient of 13,600 M^−1 cm^−1 at a wavelength of 410 nm, and its formation was followed spectroscopically. […] The slope of the progress curve was used to determine the reaction velocity.
The purified enzymes were incubated at different temperatures (30, 37, 40 and 42 °C) using a protein concentration of 1 mg/mL during the incubation periods to investigated the half-lives of WT and variants. 0.1 mg/mL enzyme was incubated with or without CL (0.125, 0.25 and 0.5 mM) in the assay buffer. The enzyme activities were determined by adding 15 nM of pre-incubated enzyme according to Section 4.3 after various incubation times up to 60 min at an assay temperature of 25 °C. Experiments were done at least three times independently as double determination.

[2] = target: T2, CPT II variant S113L (Homo sapiens, UniProt P23786, S113L); test: Lipid binding assay (membrane lipid strips); conditions: 0.4 mg enzyme, 100 pmol lipid spots
T2 construct: made in house; host or cells: Escherichia coli BL21Gold DE
T2 sequence (P23786 26-658 S113L): T1 sequence (P23786 26-658) with S88L
Protocol: Direct interaction of CPT II WT and variants with phospholipids of the mitochondrial membrane was assessed using membrane lipid strips (Echelon Biosciences, Salt Lake City, Utah, USA). The membrane was spotted with 100 pmol of various cell membrane lipids. The assay was performed following manufacturer’s instructions with some modifications explained in the following. At first, the membrane was washed twice in phosphate buffered saline (PBS). After 1 h incubation with blocking solution (3% BSA fatty acid-free in PBS) at room temperature, the membrane was incubated with purified CPT II WT or variant (final amount 0.4 mg protein) for 2 h at 4 °C. After three washing steps, a-His-Probe (H3) mouse monoclonal antibody (Santa Cruz Biotech, Santa Cruz, CA, USA, 1:1000 dilution in PBS containing 3% BSA) was added to the membrane over night at 4 °C. The membrane was washed three times with PBS and incubated with mouse IgG horseradish peroxidase-linked whole antibody (from sheep, Amersham, Little Chalfont, Buckinghamshire, UK) for 1 h at 4 °C. The interaction was visualized by ECL Western blotting detection reagents (Amersham, Little Chalfont, Buckinghamshire, UK).

Increase of the enzymatic activity by CL [1]: 1.5 fold | Maximal Enzymatic Activity ([1]; 0.25 mM CL): 152.3 ± 5.5% | Maximal Enzymatic Activity ([1]; 0.5 mM CL): 135.9 ± 4.7% | Enzymatic activity in the presence of CL ([1]; 0.25 and 0.5 mM CL, before incubation periods): up to 150% | Signal for interaction on membrane lipid strips [2]: clearly proven
Substance: Cardiolipin [CL]
